Experimental data: patent publication US20240382552A1, “COMPOSITION FOR PREVENTING, AMELIORATING OR TREATING SLEEP DISORDER OR INSOMNIA, CONTAINING EXTRACT OF ROASTED CITRUS BYPRODUCT AS ACTIVE INGREDIENT” (priority 2021, published 2024)
Where a name gives a salt, the structure may show the parent alone. Marks after values point to notes of the source that are not given here.

Assays:
C57BL/6N mice = assay: Sleep architecture analysis (EEG/EMG); format: in vivo; settings: Example 1 100 mg/kg, Example 2 300 mg/kg, zolpidem 10 mg/kg p.o.
Method: After the accommodation period of 1 week, electrodes were inserted into the
C57BL/6N mice for measurement of electroencephalograms (EEGs) and electromyograms (EMGs). After anesthetizing the mouse with pentobarbital (50 mg/kg, i.p.), the head was fixed in a stereotaxic instrument. After incising the subcutaneous connective tissue, a mouse EEG/EMG Headmount (Pinnacle Technology Inc, Oregon, USA) was inserted for EEG and EMG recording. After fixing with dental cement followed by suturing and disinfection, antibiotics were injected for 3 days to prevent inflammation. The mice were allowed to recover for 7 days. For accommodation to the measurement environment, the recording apparatus was connected from 4 days prior to the measurement. After orally administering the sample and waiting for 5 minutes for sedation, EEG and EMG were recorded for 24 hours from 17:00 using PAL-8200 (Pinnacle Technology Inc., Oregon, USA). Sampling rate was set at 200 Hz (epoch time: 10 s). Filtering range was 0.1-25 Hz for EEG and 10-100 Hz for EMG. Sleep architecture was analyzed according to the fast Fourier transform (FFT) algorithm using SleepSign (Ver. 3.0, Kissei Comtec, Nagono, Japan).
Sleep architecture analysis was conducted to evaluate the effect of the roasted citrus byproduct extracts according to an exemplary embodiment of the present disclosure on the quantity and quality of sleep. […]

[1] = test system: mice to which a sleeping dose of pentobarbital (45 mg/kg, i.p.) was administered; assay: Pentobarbital-induced sleep test; settings: pentobarbital 45 mg/kg i.p. 45 min after oral sample; DH 30 mg/kg, lime extracts 100 mg/kg, lemon extracts 300 mg/kg; n=10

Row | SMILES | delta activity during non-REM sleep (C57BL/6N mice) | time after oral administration for which NREM sleep was significantly increased (C57BL/6N mice; 24 h EEG recording) | Sleep duration (min) [1] | Sleep latency (min) [1]
1 | Cc1ccc(-c2nc3ccc(C)cn3c2CC(=O)N(C)C)cc1 [zolpidem] | significantly decreased delta activity | 6 h | – | –
2 | CN(C)CCC=C1c2ccccc2COc2ccccc21 [Doxepin hydrochloride (DH), Doxepin hydrochloride] | – | – | 121.2*** min | 2.9*** min
